Data from patent US8796249B2, “TGR5 modulators and methods of use thereof” (Intercept Pharmaceuticals, Inc., priority 2008, dated 2014).
Marks after values point to notes of the source that are not given here.

Experiments:
LXRα = target: T1, LXRα (Homo sapiens, UniProt Q13133); experiment: LXR coactivator recruitment (alphascreen); type: biochemical; conditions: ref standard T0901317
T1 sequence (Q13133 1-447): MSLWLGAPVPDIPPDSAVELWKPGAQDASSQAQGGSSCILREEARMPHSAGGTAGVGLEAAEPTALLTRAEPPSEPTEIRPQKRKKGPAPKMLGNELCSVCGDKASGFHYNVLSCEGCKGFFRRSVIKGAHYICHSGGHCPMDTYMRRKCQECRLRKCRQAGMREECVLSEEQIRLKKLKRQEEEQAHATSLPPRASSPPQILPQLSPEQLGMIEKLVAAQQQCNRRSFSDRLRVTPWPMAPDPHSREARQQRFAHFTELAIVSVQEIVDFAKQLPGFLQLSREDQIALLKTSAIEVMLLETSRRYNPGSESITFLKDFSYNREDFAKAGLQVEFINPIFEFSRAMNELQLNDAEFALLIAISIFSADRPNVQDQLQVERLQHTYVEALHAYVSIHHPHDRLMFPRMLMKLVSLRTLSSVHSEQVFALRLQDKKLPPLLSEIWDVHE
Method: (§1) The selectivity of compounds of the invention was evaluated using assay methods known in the art. Specifically, the following assay methods were used: • FXR and LXR: Coactivator Recruitment (alphascreen); • TGR5: cAMP level on human intestinal cell line (NCI-H716); • PXR: Ligands Competition assay (Binding Assay) • CAR: Coactivator Recruitment (Lanthascreen)

[1] = […] NaCl water solution; values from literature; cited from earlier work
PXR = target: T2, PXR (Homo sapiens, UniProt O75469); experiment: PXR ligands competition assay (binding assay); conditions: ligands competition assay (binding assay); ref standard SR-12183
T2 sequence (O75469 1-434): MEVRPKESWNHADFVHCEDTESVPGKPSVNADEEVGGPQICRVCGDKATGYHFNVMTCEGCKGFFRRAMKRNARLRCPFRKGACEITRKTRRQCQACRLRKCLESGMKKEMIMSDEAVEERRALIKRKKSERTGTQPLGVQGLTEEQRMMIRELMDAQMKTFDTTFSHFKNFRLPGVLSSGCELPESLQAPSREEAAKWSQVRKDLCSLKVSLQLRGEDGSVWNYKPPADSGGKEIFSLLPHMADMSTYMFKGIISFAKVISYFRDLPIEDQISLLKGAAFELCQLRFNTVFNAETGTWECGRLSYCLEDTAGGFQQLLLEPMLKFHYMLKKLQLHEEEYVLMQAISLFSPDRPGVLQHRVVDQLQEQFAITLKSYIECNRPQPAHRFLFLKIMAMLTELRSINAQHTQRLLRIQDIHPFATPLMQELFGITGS
Method: as §1

HepG2 cell = HepG2 cell cytotoxicity, ATP decrease; type: cell-based; conditions: read-out: HepG2 cell Cytotoxicity ATP decrease EC50
Method: Compounds of the invention were evaluated for cytotoxicity using standard methods known in the art. Specifically, cytotoxicity was evaluated using HEPG2 cells and monitoring ATP decrease and determining the EC50 value. […]

[2] = BA as protonated species; values from literature; cited from earlier work

C[C@H](CCC(=O)O)[C@H]1CC[C@H]2[C@@H]3[C@H](O)C[C@@H]4C[C@H](O)CC[C@]4(C)[C@H]3C[C@H](O)[C@]12C [CA]
LXRα EC50 (LXRα): No | CMC […] Na+ [1]: 11* mM | PXR EC50 (PXR): No | EC50 (HepG2 cell): > 1000 µM | Ws (water solubility) [2]: 273* μM
